# Measurements taken from US20260139063A1, “PRE-MEDICATION AND IMPROVED TREATMENT REGIMEN” (MonTa Biosciences ApS, priority 2022, published 2026).
# Entries after “also recorded” stand apart in the source; their conditions may differ.
# Assays:
# [1] = test system: plasma cytokines and chemokines; test: Clinical plasma biomarkers (cytokines and chemokines, MSD multiplex panels) after MBS8(1V270) with or without tocilizumab pre-medication; type: in vivo, human; details: patients
# Method: FIG. 1: Detection of cytokines in plasma of subjects treated with 0.1 mg/kg MBS8(1V270) without (left panels) or with (right panels) pre-medication with tocilizumab (8 mg/kg). The measurements were done using GLP/GCP compliant multiplex panels purchased from Meso Scale Discovery (MSD) (Cytokine Panel 1 Human kit, Cytokine Panel 2 Human kit and Chemokine Panel 1 Human kit). Data treatment was performed using GraphPad Prism 9 software. Selected biomarkers were IL-6 (FIG. 1A), TNF-α (FIG. 1B), IL-1RA (FIG. 1C), IFN-γ (FIG. 1D), IP-10 (FIG. 1E), IL-1β (FIG. 1F), IL-8 (FIG. 1G) and IL-10 (FIG. 1H).
# MBS8(1V270) was administered to all subjects at 0.1 mg/kg by IV infusion for a duration of 2 hours for four dosing occasions. Infusions were given one week apart on Days 1, 8, 15, and 22. Patients pretreated with tocilizumab were administered tocilizumab (8 mg/kg) prior to MBS8(1V270) infusion on the first dosing occasion (day 1) as a CRS preventive measure. The biomarkers were measured using GLP/GCP compliant and validated multiplex panels purchased from MSD in a quantitative procedure to measure these cytokines and chemokines.
# The following plasma biomarkers were identified in this clinical study: safety-related (IL-1β, IL-8, IL-6, TNF-α and IL-10) and pharmacodynamics biomarkers (IFN-γ, MCP-1, IP-10, IL-1RA and IL-12p70) (FIG. 1A-1H). Blood samples were taken at pre-dose (0), 2 h, 8 h, and 24 h post-end of infusion and processed to plasma and frozen for later biomarker analyses.
# [2] = test system: subjects presenting with advanced solid tumors; test: Occurrence of Cytokine Release Syndrome (CRS), CTCAE version 5.0 grading, on all dosing occasions; type: in vivo, human
# Method: FIG. 2: Table overview (FIG. 2A) of CRS occurrences in patients were assessed according to CTCAE grading, in patients treated with MBS8(1V270) on 4 occasions on day 1, 8, 15 and 22. Patient (pt) 1-3 were not pretreated with tocilizumab, whereas pt 4-7 were pretreated with tocilizumab prior to dosing with MBS8(1V270). All subjects received MBS8(1V270) at 0.1 mg/kg at each dosing occasion, and the clinical picture observed and rated according to the CTCAE grading shown in FIG. 2B. N/A=Not applicable. Table overview (FIG. 2B) of official CTCAE grading of patients with CRS symptoms as used for grading of CRS severeness for patients in FIG. 2A.CRS grading was done according to CTCAE Version 5.0.
# MBS8(1V270) was administered to all subjects at 0.1 mg/kg by IV infusion for a duration of 2 hours for four dosing occasions. Infusions were given one week apart on Days 1, 8, 15, and 22. Patients pretreated with tocilizumab were administered tocilizumab (8 mg/kg) prior to MBS8(1V270) infusion on the first dosing occasion as a CRS preventive measure. […] Seven subjects presenting with advanced solid tumors were treated with MBS8(1V270) at 0.1 mg/kg once weekly on four dosing occasions as described in Example 1. […] Tocilizumab was administered as a one-hour intravenous infusion at 8 mg/kg just prior to MBS8(1V270) administration.
# Occurrence of Cytokine Release Syndrome (CRS) was assessed on all dosing occasions. CRS was defined in accordance with Common Terminology Criteria for Adverse Events (CTCAE) version 5.0 as “a disorder characterized by fever, tachypnea, headache, tachycardia, hypotension, rash, and/or hypoxia caused by the release of cytokines”.
# [3] = tocilizumab 8 mg/kg prior to MBS8(1V270) 0.1 mg/kg IV
# [4] = tocilizumab premedicated patients (pt 4-7): tocilizumab 8 mg/kg IV day 1 just prior to MBS8(1V270) 0.1 mg/kg IV, days 1, 8, 15, 22
substance,measurement,setting,value
"tocilizumab: humanized monoclonal antibody against the interleukin-6 receptor (IL-6R), CAS: 375823-41-9",IFN-γ plasma level after tocilizumab premedication compared with without,[1]; [3],higher levels
same,IL-6 plasma level after tocilizumab premedication compared with without,[1]; [3],higher levels
same,IP-10 plasma level after tocilizumab premedication compared with without,[1]; [3],higher levels
same,interference of tocilizumab with the MoA of MBS8(1V270),[1]; [3],does not interfere
same,effect of tocilizumab pre-medication on cytokine and chemokine levels expected to play a role for the anti-tumor activity of MBS8(1V270),"[1]; tocilizumab 8 mg/kg prior to MBS8(1V270) 0.1 mg/kg IV infusion on day 1, plasma pre-dose, 2 h, 8 h, 24 h post-end of infusion",does not downregulate
same,"CRS observed (clinical signs, CTCAE v5.0)",[2]; patient 4-7 pretreated with tocilizumab 8 mg/kg before MBS8(1V270) 0.1 mg/kg,No clinical signs of CRS; also recorded: no CRS observed at any dosing occasion
same,"CRS experienced, number of dosing occasions",[2]; [4],0 of the 14
same,"CRS experienced, percent of dosing occasions",[2]; [4],0%
